# Key:
# PLD2 = PLD2 (Homo sapiens, UniProt O14939); conditions: COS-7 cells, 750 nM for 4 h
# Method: EGFP-PLD2 was coexpressed with either the DsRed monomer alone or DsRed monomer α-Syn-N in COS-7 cells as indicated. After 24 h of transfection, the cells were incubated with 750 nM FIPI in growth medium for 4 h and then fixed and imaged. […] The localization of EGFP-PLD2-WT and DsRed monomer α-Syn-N was quantified using ImageJ software. COS-7 cells were grown and transfected as described in the above section. […] The cells were then fixed in 4% paraformaldehyde. The coverslips were mounted using Vectashield. Fluorescence images were acquired using an Olympus FV1000-D (IX81) confocal laser scanning microscope. GFP fluorescence was excited at 488 nm, and DsRed fluorescence was excited at 543 nm. Images were acquired using FV-10 ASW software.
# EGFP-DGKγ [1] = molecular target: T1, EGFP-DGKγ (Homo sapiens, UniProt P49619); test: PMA-induced translocation of EGFP-DGKγ in COS-7 cells; format: cell-based; conditions: 1 μM PMA for 30 min
# T1 construct: expressed in transfected cells; host or cells: COS-7
# Method: (§1) FIGS. 19 and 20. […] Representative data from three independent experiments are shown. Scale bars, 20 μm. FIG. 20.
# (§2) COS-7 cells were maintained in Dulbecco's modified Eagle's medium supplemented with 10% fetal bovine serum, 100 units/ml penicillin, and 100 μg/ml streptomycin at 37° C. in an atmosphere containing 5% CO2. Cells were transiently transfected using PolyFect reagent as described by the manufacturer.
# (§3) The cells were then fixed in 4% paraformaldehyde. The coverslips were mounted using Vectashield. […] Images were acquired using FV-10 ASW software.
# [2] = Liposome cosedimentation assay, 18:1/18:1-PA liposomes; format: binding
# Method: FIG. 1. A schematic architecture of α-Syn and its deletion mutants. FIG. 2. The purified SUMO-tagged-α-Syn and its deletion mutant protein (2.5 μM) were incubated with 18:1/18:1-PA or 18:1/18:1-PS liposomes (PA or […]: 150 μM) and then separated by ultracentrifugation. SDS-PAGE (15%) was performed and separated proteins were stained with Coomassie Brilliant Blue. The positions of α-Syn and its mutants are indicated with arrow heads. The amounts of protein in the supernatant (S) and precipitant (P) were quantified by densitometry using ImageJ software. Binding activity was calculated as the percentage of the precipitate band intensity compared to the total band intensities. Values are presented as the mean±S.D. of four independent experiments. **P<0.01 versus the 18:1/18:1-PS liposome.
# (§4) FIG. 3. The purified SUMO-tagged-α-Syn-N protein (2.5 μM) was incubated with control (PC and Chol alone), 16:0/16:0-PA, 16:0/18:1-PA, 18:1/18:1-PA, or 18:0/18:0-PA liposomes (PA: 150 μM) and then separated by ultracentrifugation. SDS-PAGE (15%) was performed and separated proteins were stained with Coomassie Brilliant Blue. The position of α-Syn-N is indicated with an arrow head.
# (§5) FIG. 4. The amounts of protein in the supernatant (S) and precipitant (P) were quantified by densitometry using ImageJ software. Binding activity was calculated as the percentage of the precipitate band intensity compared to the total band intensities. Values are presented as the mean±S.D. of three independent experiments. #P<0.05, ##P<0.01, ###P<0.005 versus the 18:1/18:1-PA-liposome, *P<0.05, ***P<0.005 versus the control liposome.
# FIG. 5. The purified SUMO-tagged-α-Syn protein (0.1 μM) was incubated with 18:1/18:1-PA liposomes of the indicated concentrations (0-20 μM) and then separated by ultracentrifugation. SDS-PAGE (15%) was performed and separated proteins were detected with silver staining. The position of α-Syn-N is indicated with an arrow head.
# FIG. 6. The amounts of protein in the precipitant were quantified by densitometry using ImageJ software. Binding activity was calculated as the percentage of the precipitate band intensity compared to the total band intensities (Input). Values are presented as the mean±S.D. of four independent experiments. The Kd was determined using GraphPad Prism 8 (Dissociation-One phase exponential decay).
# (§6) FIG. 7. The purified SUMO-tagged-α-Syn protein (0.1 μM) was incubated with 18:1/18:1-PA, 18:1/18:1-PS, 18:1/18:1-PI(4,5)P2, 18:1/18:1-PE and d18:1/18:1-C1P liposomes (20 μM) and then separated by ultracentrifugation. SDS-PAGE (15%) analysis was performed and separated proteins were detected with silver staining. The position of α-Syn-N is indicated with an arrow head.
# (§7) FIG. 8. The amounts of protein in the precipitant were quantified by densitometry using ImageJ software. The PA binding activity of α-Syn-N was set to 100%. Values are presented as the mean±S.D. of three independent experiments. ***P<0.005 versus 18:1/18:1-PA liposome.
# (§8) The following lipid mixtures were used: the control liposome: Chol (50 mol %) and 16:0/18:1-PC (50 mol %); and the PA liposome: Chol (50 mol %), 16:0/18:1-PC (35 mol %) and each PA species (15 mol %). The combined dried lipid mixture was resuspended in HEPES buffer. Then, the lipid mixture was vortexed for 1 min. Liposome formation was induced by sonication at 75° C. The purified SUMO-tagged α-Syn and its deletion mutants (2.5 μM) were dissolved in HEPES buffer and incubated with the control or PA-containing liposomes at room temperature for 1 h. Then, the samples were centrifuged at 200,000 g at 4° C. for 1 h. The precipitant was dissolved in HEPES buffer. The supernatant and pellet were analyzed by SDS-PAGE followed by Coomassie Brilliant Blue and silver staining. Quantitative densitometry was performed using ImageJ software. Since the lipid forms a bilayer, half of the actual concentration was considered.
# [3] = Liposome cosedimentation assay, other PA molecular species; format: binding; conditions: protein 2.5 μM; PA 150 μM
# Method: as §4, §5
# The following lipid mixtures were used: the control liposome: Chol (50 mol %) and 16:0/18:1-PC (50 mol %); and the PA liposome: Chol (50 mol %), 16:0/18:1-PC (35 mol %) and each PA species (15 mol %). The combined dried lipid mixture was resuspended in HEPES buffer. Then, the lipid mixture was vortexed for 1 min. Liposome formation was induced by sonication at 75° C. […] The supernatant and pellet were analyzed by SDS-PAGE followed by Coomassie Brilliant Blue and silver staining. Quantitative densitometry was performed using ImageJ software. […]
# [4] = Liposome cosedimentation assay, PI(4,5)P2 liposomes; format: binding; conditions: protein 0.1 μM; liposomes 20 μM
# Method: as §6, §7
# as §8, with “Then, the samples were centrifuged at 200,000 g at 4° C. for 1 h. The precipitant was dissolved in HEPES buffer.” left out, “Since the lipid forms a bilayer, half of the actual concentration was considered.” left out
# [5] = Liposome cosedimentation assay, PS liposomes; format: binding; conditions: protein 0.1 μM; liposomes 20 μM
# Method: as §6, §7
# as §8, with “Then, the samples were centrifuged at 200,000 g at 4° C. for 1 h. The precipitant was dissolved in HEPES buffer.” left out, “Since the lipid forms a bilayer, half of the actual concentration was considered.” left out
# [6] = Liposome cosedimentation assay, PE and C1P liposomes; format: binding; conditions: protein 0.1 μM; liposomes 20 μM
# Method: as §6, §7
# as §8, with “Then, the samples were centrifuged at 200,000 g at 4° C. for 1 h. The precipitant was dissolved in HEPES buffer.” left out, “Since the lipid forms a bilayer, half of the actual concentration was considered.” left out
# [7] = Lipid overlay assay, PA spot; format: binding; conditions: GST-tagged protein 20 nM; 16:0/16:0-glycerolipids, 100 pmol
# From the text: (§9) FIG. 9. Equimolar amounts (100 pmol) of various lipids were spotted onto nitrocellulose membranes as indicated. Acyl chains of these glycerolipids and sphingolipids are C16:0 (Echelon Biosciences).
# (§10) FIGS. 10 and 12. The blots were scanned and quantified using ImageJ software. The PA binding activity (spot intensity) of α-Syn-N was set to 100%. Values are presented as the mean±S.D. of three independent experiments. ***P<0.005 versus PA.
# (§11) FIG. 27. Equimolar amounts (500 pmol) of 18:1/18:1-PA, 18:1/18:1-PC, 18:1/18:1-PE, 18:1/18:1-PG), 18:1/18:1-PS, 18:1/18:1-PI and 18:1/18:1-PI(4,5)P2 were spotted onto nitrocellulose membranes as indicated and incubated with purified GST-tagged-α-Syn-N(20 nM). Lipid-bound proteins were detected by an anti-GST antibody.
# (§12) FIG. 28. The blots were scanned and quantified using ImageJ software. The PA binding activity (spot intensity) of α-Syn-N was set to 100%. Values are presented as the mean±S.D. of three independent experiments. ***P<0.005 versus 18:1/18:1-PA.
# (§13) Three hundred picomoles of the indicated lipids were spotted onto a nitrocellulose membrane. Membrane Lipid Strip was also used. The membranes were subjected to blocking with 1% skim milk in Tris-buffered saline, pH 7.4, for 1 h at room temperature. […] Quantitative densitometry was performed using ImageJ software.
# [8] = Lipid overlay assay, other lipids; format: binding; conditions: GST-tagged protein 20 nM; 100 pmol lipids
# From the text: as §9, §10, §11, §12, §13
# [9] = Lipid overlay assay, PA versus LPA and C1P; format: binding; conditions: GST-tagged protein 20 nM; 300 pmol lipids
# Method: FIG. 11. Equimolar amounts (300 pmol) of 18:1/18:1-PA, 18:1-LPA, and d18:1/18:1-C1P were spotted onto nitrocellulose membranes as indicated. The membranes were incubated with purified GST-tagged-α-Syn-N(20 nM). Lipid-bound proteins were detected by an anti-GST antibody.
# as §10
# Three hundred picomoles of the indicated lipids were spotted onto a nitrocellulose membrane. Membrane Lipid Strip was also used. The membranes were subjected to blocking with 1% skim milk in Tris-buffered saline, pH 7.4, for 1 h at room temperature. After blocking, 10 ml of 3% bovine serum albumin in Tris-buffered saline, pH 7.4, containing purified GST alone or GST-α-Syn-N (final concentration, 20 nM) was added to the membranes. The membranes were then incubated for 1 h at room temperature. Next, the membranes were incubated with an anti-GST antibody, followed by incubation with a peroxidase-conjugated goat anti-rabbit IgG antibody. Finally, lipid-bound proteins were visualized using an ECL Western blotting detection system. Quantitative densitometry was performed using ImageJ software.
# COS-7 cells = test: Subcellular localization of the sensor without PA-generating enzyme in COS-7 cells; format: cell-based; conditions: absence of PA-generating enzyme
# Method: (§14) FIGS. 13 to 16. […] After 24 h of transfection, the cells were fixed and imaged. Representative data from three independent experiments are shown. Scale bars, 20 μm.
# (§15) FIG. 29. Either EGFP alone or EGFP-DGKβ was coexpressed with the DsRed monomer alone, DsRed monomer-Spo20p-PABD or DsRed monomer-PDE4A1-PABD in COS-7 cells as indicated. After 24 h of transfection, the cells were fixed and imaged. Representative data from three independent experiments are shown. Scale bars, 20 μm.
# as §2, §3
# EGFP-DGKβ = test: Colocalization with EGFP-DGKβ in COS-7 cells; format: cell-based; conditions: 24 h after transfection
# Method: as §14
# FIG. 14. […] FIG. 15. EGFP-DGKβ-WT was coexpressed with DsRed monomer-α-Syn-N in COS-7 cells. […] Representative data from three independent experiments are shown. Scale bars, 20 μm.
# as §15, §2, §3
# Myr-AcGFP-DGKζ = test: Colocalization with Myr-AcGFP-DGKζ in COS-7 cells; format: cell-based; conditions: trans Golgi network and plasma membrane
# Method: FIG. 17. […] After 24 h of transfection, the cells were fixed and imaged. Representative data from three independent experiments are shown. Scale bars, 20 μm.
# FIGS. 32 and 33. Either Myr-AcGFP-DGKζ alone or Myr-AcGFP-DGKζ-KD was coexpressed with the DsRed monomer alone or DsRed monomer-Spo20p-PABD in COS-7 cells as indicated. After 24 h of transfection, the cells were fixed and imaged. Representative data from three independent experiments are shown. Scale bars, 20 μm.
# as §2, §3
# EGFP-DGKγ [10] = test: Colocalization with EGFP-DGKγ in PMA-stimulated COS-7 cells; format: cell-based; conditions: 1 μM PMA 30 min
# Method: as §1, §2, §3
# EGFP-PLD2 = test: Colocalization with EGFP-PLD2 in COS-7 cells; format: cell-based
# Method: FIGS. 21 and 22. […] Representative data from three independent experiments are shown. Scale bars, 20 μm.
# as §2, §3
# PIP5K1A = test: Colocalization with EGFP-PIP5K1A in COS-7 cells; format: cell-based
# Method: FIG. 23. Either EGFP alone or EGFP-PIP5K1A was coexpressed with either the DsRed monomer alone, DsRed monomer α-Syn-N or DsRed monomer PLCδ1-PHD in COS-7 cells as indicated. After 24 h of transfection, the cells were fixed and imaged. Representative data from three independent experiments are shown. Scale bars, 20 μm.
# FIG. 24. The localization of EGFP-PIP5K1A, DsRed monomer-α-Syn-N and DsRed monomer-PLCδ1-PHD was quantified using ImageJ software.
# as §2, §3
# T1 sequence (P49619 whole entry): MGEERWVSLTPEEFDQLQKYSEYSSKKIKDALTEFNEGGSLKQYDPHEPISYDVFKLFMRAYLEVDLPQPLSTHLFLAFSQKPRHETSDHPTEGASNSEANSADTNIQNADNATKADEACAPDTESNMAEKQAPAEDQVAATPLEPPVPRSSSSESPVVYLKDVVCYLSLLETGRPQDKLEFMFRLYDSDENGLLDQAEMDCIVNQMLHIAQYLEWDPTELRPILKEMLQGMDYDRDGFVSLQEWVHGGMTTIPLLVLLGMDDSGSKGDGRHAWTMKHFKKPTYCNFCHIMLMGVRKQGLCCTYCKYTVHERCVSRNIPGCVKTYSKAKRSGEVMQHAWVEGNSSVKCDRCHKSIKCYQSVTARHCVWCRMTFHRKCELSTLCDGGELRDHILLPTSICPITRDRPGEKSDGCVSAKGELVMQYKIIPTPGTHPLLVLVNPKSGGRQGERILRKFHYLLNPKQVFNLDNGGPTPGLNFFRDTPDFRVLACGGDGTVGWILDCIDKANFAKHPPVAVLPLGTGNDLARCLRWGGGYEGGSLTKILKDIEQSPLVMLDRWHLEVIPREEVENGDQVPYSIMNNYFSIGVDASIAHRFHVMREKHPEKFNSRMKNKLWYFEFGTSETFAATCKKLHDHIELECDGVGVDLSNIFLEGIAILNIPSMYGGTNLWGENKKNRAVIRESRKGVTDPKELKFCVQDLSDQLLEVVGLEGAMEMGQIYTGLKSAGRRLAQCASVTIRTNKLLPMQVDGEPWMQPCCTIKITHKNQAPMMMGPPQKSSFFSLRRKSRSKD
# Sequence of PLD2 (O14939 whole entry): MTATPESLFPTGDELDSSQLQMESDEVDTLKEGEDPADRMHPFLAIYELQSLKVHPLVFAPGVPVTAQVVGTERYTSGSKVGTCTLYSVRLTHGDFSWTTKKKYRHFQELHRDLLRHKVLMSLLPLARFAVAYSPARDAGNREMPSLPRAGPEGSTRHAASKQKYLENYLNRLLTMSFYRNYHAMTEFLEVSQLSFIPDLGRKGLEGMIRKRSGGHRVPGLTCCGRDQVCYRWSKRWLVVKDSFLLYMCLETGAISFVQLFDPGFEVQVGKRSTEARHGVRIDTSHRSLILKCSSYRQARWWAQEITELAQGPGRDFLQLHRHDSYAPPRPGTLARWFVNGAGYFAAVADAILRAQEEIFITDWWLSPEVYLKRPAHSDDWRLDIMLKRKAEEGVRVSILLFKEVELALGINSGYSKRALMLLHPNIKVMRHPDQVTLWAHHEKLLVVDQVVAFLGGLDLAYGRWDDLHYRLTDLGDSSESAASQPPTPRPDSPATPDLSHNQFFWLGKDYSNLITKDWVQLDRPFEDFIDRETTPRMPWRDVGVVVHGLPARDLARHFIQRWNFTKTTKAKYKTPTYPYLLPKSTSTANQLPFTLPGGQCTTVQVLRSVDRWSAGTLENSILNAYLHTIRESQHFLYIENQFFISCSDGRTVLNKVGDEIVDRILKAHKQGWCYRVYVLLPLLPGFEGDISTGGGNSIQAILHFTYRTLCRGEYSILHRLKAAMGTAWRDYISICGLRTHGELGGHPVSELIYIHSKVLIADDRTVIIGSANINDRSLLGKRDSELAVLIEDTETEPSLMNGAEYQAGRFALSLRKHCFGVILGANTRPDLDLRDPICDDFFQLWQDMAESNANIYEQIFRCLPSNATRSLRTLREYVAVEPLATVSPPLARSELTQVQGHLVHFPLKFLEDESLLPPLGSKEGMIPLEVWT
compound,measurement,setting,value
"O=C(NCCN1CCC(n2c(=O)[nH]c3ccccc32)CC1)c1cc2cc(F)ccc2[nH]1 [FIPI, 5-fluoro-2-indolyl deschlorohalopemide]",effect on colocalization of EGFP-PLD2 and DsRed-α-Syn-N,PLD2,markedly attenuated their colocalization
"CCCCCCCCCCCCCC(=O)O[C@@H]1[C@@H](C)[C@@]2(O)[C@@H](C=C(CO)C[C@]3(O)C(=O)C(C)=C[C@@H]23)[C@@H]2C(C)(C)[C@]12OC(C)=O [PMA, phorbol 12-myristate 13-acetate]",translocation of EGFP-DGKγ,EGFP-DGKγ [1],led to the translocation of EGFP-DGKγ from the cytoplasm to the plasma membrane
"α-Syn-N: N-terminal region of mouse α-synuclein (Met1-Lys60), SEQ ID NO: 2; used 6×His-SUMO-, GST- or DsRed monomer-tagged",PA-binding activity (18:1/18:1-PA liposomes),"[2]; 6×His-SUMO-tagged protein 2.5 μM, PA 150 μM",most strongly bound
same,Kd,"[2]; protein 0.1 μM, 18:1/18:1-PA liposomes 0-20 μM, read-out: dissociation constant (Kd) for PA (18:1/18:1-PA)",6.6 µM
same,binding to 18:1/18:1-PA liposomes compared with other acidic glycerolipids,"[2]; protein 0.1 μM, liposomes 20 μM",most strongly bound
same,binding to 16:0/16:0- and 16:0/18:1-PA liposomes,[3],considerably interacted
same,"binding to PI(4,5)P2 liposomes",[4],only weak signals were detected
same,binding to PS liposomes,[5],no signals were observed
same,binding to PE or C1P liposomes,[6],did not substantially interact
same,binding to PA spot,[7],most strongly bound
same,binding to other lipid spots,[8],only weak or no signals were detected
same,binding of PA relative to LPA and C1P,[9],significantly stronger binding
same,subcellular localization,COS-7 cells,broad distribution in the cytoplasm and the nucleus
same,colocalization with EGFP-DGKβ,EGFP-DGKβ,clearly colocalized
same,colocalization with Myr-AcGFP-DGKζ,Myr-AcGFP-DGKζ,markedly colocalized
same,colocalization with EGFP-DGKγ at the plasma membrane,EGFP-DGKγ [10],markedly colocalized
same,colocalization with EGFP-PLD2,EGFP-PLD2,clearly colocalized
same,colocalization with EGFP-PIP5K1A,PIP5K1A,did not codistribute
